{
  "source": "patent US10912741B2",
  "about": "“Prevention of liver cancer with safranal-based formulations” (United Arab Emirates University, priority 2019, dated 2021)",
  "key": {"ED-1 (macrophages)": {"test_system": "ED-1 (macrophages)", "test": "Immunohistochemical staining of liver sections, ED-1 positive cells (macrophages)", "format": "in vivo, albino Wistar rats", "details": "mean±SEM, 8 rats", "method": "(§1) The experimental hepatocarcinogenesis model was developed according to a protocol by Espandiaria et al. that was adapted for our purposes. To initiate and promote hepatocarcinogenesis, diethylnitrosamine (DEN) and 2-acetylaminofluorene (2-AAF) were used, respectively. For hepatocarcinogenesis initiation in this model, a single DEN dose (200 mg/kg b.wt.) dissolved in saline was injected intraperitoneally. After initiation, all rats underwent one period of 5-days fasting, as mitotic proliferative stimuli. To promote hepatocarcinogenesis, 2-acetylaminofluorene (2-AAF) was introduced in the form of six daily intragastric doses (30 mg/kg in 1% Tween 80); two weeks after DEN treatment.\nSafranal at doses of 25 mg/kg by weight (b.wt.) and 50 mg/kg b.wt, was administrated orally to rats. These doses have been reported to suppress chemically-induced oxidative damage in rats. A total of 40 adult male albino Wistar rats were randomly divided into […] (n=8) and were subjected to different treatments. Group 1 (control) was orally administered distilled water (5 ml/kg b.wt.) throughout the experimental duration and were injected with a single dose of saline. Group 2 (Safranal only) was subjected to a safranal dose (50 mg/kg b.wt.) through oral administration for the duration of the experimental period. Hepatocarcinogenesis was induced by DEN and promoted by 2-AAF, as reported previously, in group 3 (HCC). Rats in protective groups (groups 4-5) were treated with low/high doses of saffron-based safranal suspensions, at the beginning of promotion periods and continued for 12 weeks. The low dosage treatment with safranal consisted of 25 mg/kg b.wt., and the high dosage treatment consisted of 50 mg/kg b.wt. The experimental design is illustrated in FIG. 1.\n(§2) For immunohistochemical staining, mounted sections were immersed in sodium citrate buffer (0.1 M, pH 6) and placed in a water bath for 15 minutes to unmask antigen epitopes. […] Ten fields were randomly selected to quantify positive cells, in individual samples (400×). […]"}, "TNF-α": {"test_system": "TNF-α", "test": "TNF-α level in serum by ELISA", "format": "in vivo, albino Wistar rats", "method": "as §1\nSafranal at doses of 25 mg/kg by weight (b.wt.) and 50 mg/kg b.wt, was administrated orally to rats. These doses have been reported to suppress chemically-induced oxidative damage in rats. A total of 40 adult male albino Wistar rats were randomly divided into […] (n=8) and were subjected to different treatments. Group 1 (control) was orally administered distilled water (5 ml/kg b.wt.) throughout the experimental duration and were injected with a single dose of saline. […]\nTNF-α level in serum was quantitatively measured using Enzyme-Linked Immunosorbent Assay (ELISA), according to the manufacturer instructions (ELISA kits (R&D Systems), Minnesota, USA. Results are presented in picograms/milligrams."}, "[1]": {"test_system": "placental glutathione s-transferase (GST-p)", "test": "Immunohistochemical staining of liver sections, GST-p positive foci", "format": "in vivo, albino Wistar rats", "method": "as §1\n(§3) Safranal at doses of 25 mg/kg by weight (b.wt.) and 50 mg/kg b.wt, was administrated orally to rats. These doses have been reported to suppress chemically-induced oxidative damage in rats. A total of 40 adult male albino Wistar rats were randomly divided into […] (n=8) and were subjected to different treatments. […]\nas §2"}, "[2]": {"test_system": "human prostate cancer PC-3 cell lines", "details": "PC-3 cell line, reported in the background; cited from earlier work"}, "[3]": {"test_system": "NF-kB-p65 nuclear localization", "test": "NF-kB-p65 nuclear localization in nuclear extracts", "format": "in vivo, albino Wistar rats", "details": "animal groups pre-treated with safranal (DEN-exposed)", "text": "DEN, 2-AAF, 5, 5′-dithiobis-(2-nitrobenzoic acid thiobarbituric acid, Folin's reagent, pyrogallol, SOD enzyme, H2O2, and bovine albumin were obtained from Sigma Chemical Co. (St. Louis, Mo.). Nf-kB nuclear localization assay kit was purchased from (Ser. No. 10/007,889, Cayman Chemical Company, Ann Arbor, Mich., USA).\nas §1, §3"}, "p-TNF-R1": {"test_system": "p-TNF-R1", "test": "Immunohistochemical staining of liver sections, p-TNF-R1 positive cells", "format": "in vivo, albino Wistar rats", "method": "as §1, §3, §2"}, "NF-kB-p65": {"test_system": "NF-kB-p65", "test": "Immunohistochemical staining of liver sections, NF-kB-p65 positive cells", "format": "in vivo, albino Wistar rats", "details": "low/high doses of safranal, DEN-exposed rats, vs HCC group", "method": "as §1, §3, §2"}, "[4]": {"test_system": "IL-8 secretion by HepG2 cells", "test": "IL-8 ELISA of supernatant of safranal-treated cells", "format": "cell-based, human", "details": "as early as 6 hrs", "method": "HepG2, were cultured in RPMI 1640 medium (HyClone, USA) and 1% of 100 U/ml penicillin and 100 ug/ml streptomycin (Sigma, USA) supplemented with 10% fetal bovine serum (Sigma, USA) at 37° C. in a humidified 5% CO2 atmosphere. Cells were sub-cultured each 4-6 days using trypsin 0.25% (Hyclone, USA).\nIn 100 mm plates, HepG2 cells were seeded at a density of 2×10^4 in complete growth medium. Cells were allowed to attach for 24 hours, after which complete growth medium was replaced by serum-free medium. Cells were treated with safranal at a concentration of 1 mM (20 mM stock). Plates were incubated for 6, 12, 24, and 48 hours in a humidified 5% CO2 atmosphere at 37° C. At indicated times, 1 mL of cell supernatant was obtained from each plate and was stored at −80° C. for further analysis by ELISA. After which whole cell lysates were prepared. Bicinchoninic acid (BCA) assay (Sigma-Aldrich, USA) was used to determine concentration of protein. Thirty μg of protein were loaded onto 10% SDS polyacrylamide electrophoresis gels. […]\nSupernatant of safranal-treated cells were used to investigate the effect of safranal on IL-8 secretion level. […] Absorbance was recorded at 450 nm with background subtraction at 570 nm using a microplate reader (Biotek, Winooski, Vt., USA)."}},
  "note": "Marks after values point to notes of the source that are not given here.",
  "data": [
    {"smiles": "CC1=C(C=O)C(C)(C)CC=C1", "note": "[Safranal, 2,6,6-trimethylcyclohexa-1,3-diene-1-carbaldehyde]", "values": [
      {"measurement": "ED-1 positive cells", "setting": "ED-1 (macrophages); HCC (DEN/2-AAF) rats + safranal high dose 50 mg/kg b.wt. oral, 12 weeks", "value": "49.84 ± 2.28^b positive cells/field"},
      {"measurement": "ED-1 positive cells", "setting": "ED-1 (macrophages); HCC (DEN/2-AAF) rats + safranal low dose 25 mg/kg b.wt. oral, 12 weeks", "value": "59.19 ± 2.0^a&b positive cells/field"},
      {"measurement": "ED-1 positive cells", "setting": "ED-1 (macrophages); safranal alone 50 mg/kg b.wt. oral, no DEN (group 2)", "value": "44.33 ± 1.52", "unit": "positive cells/field"},
      {"measurement": "TNF-α level in serum", "setting": "TNF-α; low/high doses of safranal after DEN exposure (groups 4-5)", "value": "significant reduction in TNF-α expression"},
      {"measurement": "TNF-α level in serum", "setting": "TNF-α; safranal alone (group 2), vs control group", "value": "no significant impact"},
      {"measurement": "number of GST-p positive foci and area/cm^2", "setting": "[1]; safranal treatment after DEN exposure (groups 4-5, 25/50 mg/kg b.wt.)", "value": "significantly reduced the number of GST-p positive foci and the area/cm^2"},
      {"measurement": "GST-p positive foci", "setting": "[1]; safranal treatment alone (group 2)", "value": "did not induce formation of such foci"},
      {"measurement": "apoptosis", "setting": "[2]", "value": "induce apoptosis"},
      {"measurement": "NF-kB-p65 level in nuclear extracts", "setting": "[3]", "value": "parallel decrease in NF-kB-p65 level in nuclear extracts"},
      {"measurement": "number of p-TNF-R1 positive cells", "setting": "p-TNF-R1; low/high doses of safranal, DEN-2-AAF-treated animals (groups 4-5), vs HCC group", "value": "highly significant decrease"},
      {"measurement": "number of p-TNF-R1 positive cells", "setting": "p-TNF-R1; safranal alone, compared to control group", "value": "change of no significance"},
      {"measurement": "number of NF-kB-p65-positive cells", "setting": "NF-kB-p65", "value": "significantly reduced the number of NF-kB-p65-positive cells"},
      {"measurement": "IL-8 secretion", "setting": "[4]", "value": "dramatic decrease in IL-8 secretion"}
    ]}
  ]
}
